{"source": "patent US8513271B2", "about": "“Pyrimidine compounds as delta opioid receptor modulators” (Janssen Pharmaceutica, NV, priority 2009, dated 2013)", "key": {"delta opioid receptor [1]": {"target": "T1, delta opioid receptor (Mus musculus, UniProt P32300)", "T1 construct": "NG108-15 cell membranes were purchased from Applied Cell Sciences (Rockville, Md.); host or cells: NG108-15 cell membranes", "T1 sequence (P32300 whole entry)": "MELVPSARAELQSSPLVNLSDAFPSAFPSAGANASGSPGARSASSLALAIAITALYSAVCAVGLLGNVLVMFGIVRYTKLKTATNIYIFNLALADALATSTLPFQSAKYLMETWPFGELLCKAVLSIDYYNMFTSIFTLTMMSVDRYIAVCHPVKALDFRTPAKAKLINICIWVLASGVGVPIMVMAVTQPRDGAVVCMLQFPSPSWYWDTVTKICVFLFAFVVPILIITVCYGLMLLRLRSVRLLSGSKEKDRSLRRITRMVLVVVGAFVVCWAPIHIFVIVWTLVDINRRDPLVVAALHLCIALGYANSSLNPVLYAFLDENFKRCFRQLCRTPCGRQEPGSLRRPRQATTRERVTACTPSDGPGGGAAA", "experiment": "[35S]GTPγS binding assay in NG108-15 cell membranes (delta opioid functional assay), 200 nM screen", "type": "biochemical", "conditions": "for EC50 / GTPγS δ-opioid receptor Rel Efficacy: NG108-15 cell membranes; for EC50: averages if tested more than once; for GTPγS δ-opioid receptor Rel Efficacy: relative efficacy from dose response"}, "[2]": {"test_system": "CFA-induced paw radiant heat hypersensitivity", "experiment": "CFA-induced paw radiant heat hypersensitivity", "type": "in vivo, rat", "conditions": "for inhibition in vivo at 100 mg/kg: Rattus norvegicus; for maximum % reversal: time not printed (last time point 100 min)"}, "mu opioid receptor": {"target": "T2, mu opioid receptor (Rattus norvegicus, UniProt P33535)", "T2 construct": "the forebrains were homogenized in Tris buffer in a Teflon®-glass homogenizer; from tissue; host or cells: forebrain of male Wistar rats, particulate (membrane) preparation", "T2 sequence (P33535 whole entry)": "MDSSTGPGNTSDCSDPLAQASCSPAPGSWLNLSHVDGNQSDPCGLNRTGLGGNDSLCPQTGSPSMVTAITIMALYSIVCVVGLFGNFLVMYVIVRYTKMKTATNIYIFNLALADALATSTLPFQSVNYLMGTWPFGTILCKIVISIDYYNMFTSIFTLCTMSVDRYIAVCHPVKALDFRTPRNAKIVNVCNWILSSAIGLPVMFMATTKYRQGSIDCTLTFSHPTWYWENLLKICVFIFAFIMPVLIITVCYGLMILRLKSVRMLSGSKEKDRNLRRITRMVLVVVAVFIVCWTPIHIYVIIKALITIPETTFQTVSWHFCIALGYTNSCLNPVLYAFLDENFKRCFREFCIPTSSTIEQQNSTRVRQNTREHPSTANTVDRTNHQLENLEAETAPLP", "experiment": "Rat brain mu opioid receptor binding assay", "conditions": "rat forebrain, [3H]DAMGO ligand"}, "[3]": {"target": "hMOR (mu opioid receptor) (Homo sapiens, UniProt P35372)", "sequence (P35372 whole entry, looked up)": "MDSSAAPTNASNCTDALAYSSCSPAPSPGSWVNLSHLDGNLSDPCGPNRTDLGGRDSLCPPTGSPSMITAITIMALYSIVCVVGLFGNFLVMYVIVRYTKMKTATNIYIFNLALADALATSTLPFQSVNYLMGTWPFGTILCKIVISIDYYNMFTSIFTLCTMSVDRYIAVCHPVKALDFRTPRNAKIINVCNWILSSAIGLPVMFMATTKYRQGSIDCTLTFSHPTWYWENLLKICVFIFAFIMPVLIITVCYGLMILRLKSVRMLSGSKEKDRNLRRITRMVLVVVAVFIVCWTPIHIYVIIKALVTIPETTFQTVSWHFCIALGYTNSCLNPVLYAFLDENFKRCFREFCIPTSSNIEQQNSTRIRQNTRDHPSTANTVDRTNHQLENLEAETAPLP", "experiment": "[35S]GTPγS binding assays in CHO-hMOR cell membranes (mu opioid functional assay)", "type": "biochemical", "conditions": "for inhibition at 10 µM: read-out: GTPγS μ-opioid receptor % Inh @10 μM"}, "delta opioid receptor [4]": {"target": "T3, delta opioid receptor (Rattus norvegicus, UniProt P33533)", "T3 construct": "the forebrains were homogenized in Tris buffer in a Teflon®-glass homogenizer; from tissue; host or cells: forebrain of male Wistar rats, particulate (membrane) preparation", "T3 sequence (P33533 whole entry)": "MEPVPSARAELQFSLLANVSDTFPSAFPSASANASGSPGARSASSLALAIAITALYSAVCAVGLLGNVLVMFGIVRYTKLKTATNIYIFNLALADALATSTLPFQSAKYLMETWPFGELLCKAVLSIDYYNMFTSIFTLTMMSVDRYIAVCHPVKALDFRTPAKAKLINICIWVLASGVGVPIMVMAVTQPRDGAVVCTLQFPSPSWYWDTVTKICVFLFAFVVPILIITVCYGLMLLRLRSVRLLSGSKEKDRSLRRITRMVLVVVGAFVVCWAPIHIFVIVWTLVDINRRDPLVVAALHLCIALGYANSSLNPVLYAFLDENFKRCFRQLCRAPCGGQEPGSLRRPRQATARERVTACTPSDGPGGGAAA", "experiment": "Rat brain delta opioid receptor binding assay", "conditions": "rat forebrain, [3H]naltrindole ligand"}, "[5]": {"test_system": "acetic acid-induced abdominal stretches", "experiment": "Mouse graded abdominal irritant test (GrAIT)", "type": "in vivo", "conditions": "10% Solutol, 30 min pretreatment"}, "delta opioid receptor [6]": {"target": "T1, delta opioid receptor", "experiment": "NG108-15, 24-well delta opioid receptor binding assay"}, "[7]": {"conditions": "GTPγS δ-opioid receptor EC50 (μM)"}, "[8]": {"conditions": "po, 1 h, read-out: maximum % reversal @ time (min), rat, 100 mg/kg p.o., 0.5% HPMC, @ 60 min"}, "[9]": {"conditions": "po, 3 h, read-out: maximum % reversal @ time (min), rat, 100 mg/kg p.o., 0.5% HPMC, @ 180 min, Algos (contract lab) study"}, "[10]": {"conditions": "δ-binding (Naltrindole ligand) Ki"}}, "note": "Values joined by “and” are separate entries in the source; they are usually repeats but may differ in a detail not shown here. Equal entries are not always repeated. Where two headings read alike, the source gives them in different places.", "data": [{"smiles": "COc1ccc(Oc2nc(-c3cccnc3)ncc2NC[C@@H]2CCCN2)cc1", "note": "[Cpd 8]", "values": [{"measurement": "EC50", "setting": "delta opioid receptor [1]; [7]", "value": 0.0681, "unit": "µM"}, {"measurement": "inhibition at 10 µM", "setting": "delta opioid receptor [1]; read-out: GTPγS δ-opioid receptor % Inh @10 μM", "value": 23.6, "unit": "%"}, {"measurement": "GTPγS δ-opioid receptor Rel Efficacy", "setting": "delta opioid receptor [1]", "value": 0.848}, {"measurement": "inhibition in vivo at 100 mg/kg", "setting": "[2]; [8]", "value": 46.5, "unit": "%"}, {"measurement": "inhibition in vivo at 100 mg/kg", "setting": "[2]; [9]", "value": 75.1, "unit": "%"}, {"measurement": "maximum % reversal", "setting": "[2]; rat, 30 mg/kg p.o., 0.5% HPMC", "value": 49.0, "unit": "%"}, {"measurement": "maximum % reversal", "setting": "[2]; rat, 100 mg/kg p.o., 0.5% HPMC", "value": 64.8, "unit": "%"}, {"measurement": "Ki", "setting": "mu opioid receptor; μ-binding Ki", "value": 0.0428, "unit": "µM"}, {"measurement": "inhibition at 10 µM", "setting": "[3]", "value": 2.48, "unit": "%"}, {"measurement": "Ki", "setting": "delta opioid receptor [4]; [10]", "value": 0.00619, "unit": "µM"}, {"measurement": "# abdominal stretches (compound)", "setting": "[5]; 30 mg/kg s.c.", "value": 18.9}]}, {"smiles": "COc1ccc(Oc2nc(-c3cnc4ccccc4c3)ncc2NC[C@@H]2CCCN2)cc1", "note": "[Cpd 20]", "values": [{"measurement": "Ki", "setting": "mu opioid receptor; read-out: μ-binding Ki", "value": 0.146, "unit": "µM"}, {"measurement": "Ki", "setting": "delta opioid receptor [4]; [10]", "value": 0.00493, "unit": "µM"}, {"measurement": "# abdominal stretches (compound)", "setting": "[5]; 30 mg/kg s.c.", "value": 19.8}]}, {"smiles": "COc1ccc(Oc2nc(-c3ccc(OC)nc3)ncc2NC[C@@H]2CCCN2)cc1", "note": "[Cpd 22]", "values": [{"measurement": "Ki", "setting": "mu opioid receptor; read-out: μ-binding Ki", "value": 1.1, "unit": "µM"}, {"measurement": "Ki", "setting": "delta opioid receptor [4]; [10]", "value": 0.000909, "unit": "µM"}, {"measurement": "# abdominal stretches (compound)", "setting": "[5]; 30 mg/kg s.c.", "value": "18.6 and 16.0"}, {"measurement": "# abdominal stretches (compound)", "setting": "[5]; 100 mg/kg s.c.", "value": 17.4}, {"measurement": "# abdominal stretches (compound)", "setting": "[5]; 300 mg/kg s.c.", "value": 20.3}]}, {"smiles": "COc1ccc(Oc2nc(-c3cncnc3)ncc2NC[C@@H]2CCCN2)cc1", "note": "[Cpd 23]", "values": [{"measurement": "ED50", "setting": "[2]; po, 2 h, rat, p.o., 0.5% HPMC, doses 10, 30, 100, 300 mg/kg, time point 120 min, read-out: ED50", "value": 35.4, "unit": "mg/kg"}, {"measurement": "Ki", "setting": "mu opioid receptor; read-out: μ-binding Ki", "value": 0.214, "unit": "µM"}, {"measurement": "Ki", "setting": "delta opioid receptor [4]; read-out: δ-binding (Naltrindole ligand) Ki", "value": 0.00125, "unit": "µM"}, {"measurement": "# abdominal stretches (compound)", "setting": "[5]; 30 mg/kg s.c.", "value": 16.7}]}, {"smiles": "COc1ccc(Oc2nc(-c3cccnc3F)ncc2NC[C@@H]2CCCN2)cc1", "note": "[Cpd 24]", "values": [{"measurement": "Ki", "setting": "mu opioid receptor; read-out: μ-binding Ki", "value": 1.06, "unit": "µM"}, {"measurement": "Ki", "setting": "delta opioid receptor [4]; [10]", "value": 0.001, "unit": "µM"}, {"measurement": "# abdominal stretches (compound)", "setting": "[5]; 30 mg/kg s.c.", "value": 16.9}]}, {"smiles": "COc1ccc(Oc2nc(-c3ccc(F)nc3)ncc2NC[C@@H]2CCCN2)cc1", "note": "[Cpd 25]", "values": [{"measurement": "Ki", "setting": "mu opioid receptor; read-out: μ-binding Ki", "value": 0.616, "unit": "µM"}, {"measurement": "Ki", "setting": "delta opioid receptor [4]; [10]", "value": 0.000308, "unit": "µM"}, {"measurement": "# abdominal stretches (compound)", "setting": "[5]; 30 mg/kg s.c.", "value": 12.3}]}, {"smiles": "COc1ccc(Oc2nc(-c3cccnc3OC)ncc2NC[C@@H]2CCCN2)cc1", "note": "[Cpd 26]", "values": [{"measurement": "Ki", "setting": "mu opioid receptor; read-out: μ-binding Ki", "value": 4.05, "unit": "µM"}, {"measurement": "Ki", "setting": "delta opioid receptor [4]; [10]", "value": 0.008, "unit": "µM"}, {"measurement": "# abdominal stretches (compound)", "setting": "[5]; 30 mg/kg s.c.", "value": 16.7}]}, {"smiles": "COc1ccc(Oc2nc(-c3cncc(F)c3)ncc2NC[C@@H]2CCCN2)cc1", "note": "[Cpd 54]", "values": [{"measurement": "inhibition in vivo at 100 mg/kg", "setting": "[2]; [8]", "value": 17.8, "unit": "%"}, {"measurement": "inhibition in vivo at 100 mg/kg", "setting": "[2]; po, 3 h, read-out: maximum % reversal @ time (min), rat, 100 mg/kg p.o., 0.5% HPMC, @ 180 min", "value": 32.7, "unit": "%"}, {"measurement": "Ki", "setting": "mu opioid receptor; read-out: μ-binding Ki", "value": 0.217, "unit": "µM"}, {"measurement": "Ki", "setting": "delta opioid receptor [4]; [10]", "value": 0.00033, "unit": "µM"}, {"measurement": "Ki", "setting": "delta opioid receptor [6]", "value": 0.000188, "unit": "µM"}]}, {"smiles": "COc1ccc(Oc2nc(-c3cncc(OC)c3)ncc2NC[C@@H]2CCCN2)cc1", "note": "[Cpd 68]", "values": [{"measurement": "EC50", "setting": "delta opioid receptor [1]; [7]", "value": 0.031, "unit": "µM"}, {"measurement": "GTPγS δ-opioid receptor Rel Efficacy", "setting": "delta opioid receptor [1]", "value": 0.912}, {"measurement": "Ki", "setting": "mu opioid receptor; μ-binding Ki", "value": 0.465, "unit": "µM"}, {"measurement": "inhibition at 10 µM", "setting": "[3]", "value": 11.5, "unit": "%"}, {"measurement": "Ki", "setting": "delta opioid receptor [4]; [10]", "value": 0.002, "unit": "µM"}]}, {"smiles": "COc1ccc(Oc2nc(-c3cncc(C#N)c3)ncc2NC[C@@H]2CCCN2)cc1", "note": "[Cpd 69]", "values": [{"measurement": "EC50", "setting": "delta opioid receptor [1]; [7]", "value": 0.0085, "unit": "µM"}, {"measurement": "GTPγS δ-opioid receptor Rel Efficacy", "setting": "delta opioid receptor [1]", "value": 1.004}, {"measurement": "inhibition in vivo at 100 mg/kg", "setting": "[2]; [8]", "value": 10.1, "unit": "%"}, {"measurement": "inhibition in vivo at 100 mg/kg", "setting": "[2]; po, 1 h, read-out: maximum % reversal @ time (min), rat, 100 mg/kg p.o., 0.5% HPMC, @ 60 min, Algos (contract lab) study", "value": 55.7, "unit": "%"}, {"measurement": "inhibition in vivo at 100 mg/kg", "setting": "[2]; [9]", "value": 65.4, "unit": "%"}, {"measurement": "Ki", "setting": "mu opioid receptor; μ-binding Ki", "value": 0.196, "unit": "µM"}, {"measurement": "EC50", "setting": "[3]", "value": "> 10", "unit": "µM"}, {"measurement": "inhibition at 10 µM", "setting": "[3]", "value": 22.8, "unit": "%"}, {"measurement": "Ki", "setting": "delta opioid receptor [4]; [10]", "value": 0.0041, "unit": "µM"}, {"measurement": "Ki", "setting": "delta opioid receptor [6]", "value": 0.000139, "unit": "µM"}]}, {"smiles": "COc1ccc(Oc2nc(-c3cncc(C#N)c3)ncc2NC[C@@H]2CCCN2)c(F)c1F", "note": "[Cpd 101]", "values": [{"measurement": "EC50", "setting": "delta opioid receptor [1]; read-out: GTPγS δ-opioid receptor EC50", "value": 0.103, "unit": "µM"}, {"measurement": "Ki", "setting": "mu opioid receptor; μ-binding Ki", "value": 0.058, "unit": "µM"}, {"measurement": "EC50", "setting": "[3]; CHO-hMOR cell membranes, read-out: GTPγS μ-opioid receptor EC50", "value": "> 10", "unit": "µM"}, {"measurement": "inhibition at 10 µM", "setting": "[3]", "value": 16.6, "unit": "%"}, {"measurement": "Ki", "setting": "delta opioid receptor [4]; [10]", "value": 0.007, "unit": "µM"}]}, {"smiles": "CCOc1ccc(Oc2nc(-c3cncc(F)c3)ncc2NC[C@@H]2CCCN2)cc1", "note": "[Cpd 106]", "values": [{"measurement": "EC50", "setting": "delta opioid receptor [1]; [7]", "value": 0.027, "unit": "µM"}, {"measurement": "GTPγS δ-opioid receptor Rel Efficacy", "setting": "delta opioid receptor [1]", "value": 1.019}, {"measurement": "Ki", "setting": "mu opioid receptor; μ-binding Ki", "value": 0.042, "unit": "µM"}, {"measurement": "EC50", "setting": "[3]", "value": "> 10", "unit": "µM"}, {"measurement": "inhibition at 10 µM", "setting": "[3]", "value": 17, "unit": "%"}, {"measurement": "Ki", "setting": "delta opioid receptor [4]; [10]", "value": 0.006, "unit": "µM"}]}]}
